Measurements from paper PMC9666555, “Genuine selective caspase-2 inhibition with new irreversible small peptidomimetics” (Cell Death & Disease, 2022).
Non-standard residues stand in square brackets, D forms with d. Residues, ends and D or L forms follow the SMILES beside them. ξ: configuration not given here. *: point of attachment. ξTHIQ1CO(6-Me) = Cc1ccc2c(c1)CCNC2C(=O)O; X1 = O=C(O)CC(N*)C(=O)COc1c(F)cccc1F; Quinaldoyl = O=C(c1ccc2ccccc2n1)*

Key:
Assay type in all cases: biochemical
[1] = molecular target: T1, human active recombinant caspase-2 (Homo sapiens, UniProt P42575); experiment: In vitro caspase activity and inhibition assay (IC50), Caspase-2
T1 sequence (P42575 170-325 limits assumed): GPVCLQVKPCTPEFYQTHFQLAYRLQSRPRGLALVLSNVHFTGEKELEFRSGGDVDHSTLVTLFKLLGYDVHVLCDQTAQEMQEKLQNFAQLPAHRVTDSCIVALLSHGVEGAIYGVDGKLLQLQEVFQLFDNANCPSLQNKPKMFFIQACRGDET
T1 sequence (P42575 348-452 limits assumed): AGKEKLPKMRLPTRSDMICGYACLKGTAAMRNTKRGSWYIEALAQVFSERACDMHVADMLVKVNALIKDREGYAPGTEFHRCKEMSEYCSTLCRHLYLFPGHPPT
Description: Stock solutions were stored at −80 °C.

[2] = molecular target: T2, human active recombinant Caspase-3 (Homo sapiens, UniProt P42574); experiment: In vitro caspase activity and inhibition assay (IC50), Caspase-3; conditions: 30 min preincubation; 0.1 nM Caspase-3, 10 µM Ac-DEVD-AMC; read-out: Enzyme assays Casp3 IC50 (converted)
T2 sequence (P42574 29-175 limits assumed): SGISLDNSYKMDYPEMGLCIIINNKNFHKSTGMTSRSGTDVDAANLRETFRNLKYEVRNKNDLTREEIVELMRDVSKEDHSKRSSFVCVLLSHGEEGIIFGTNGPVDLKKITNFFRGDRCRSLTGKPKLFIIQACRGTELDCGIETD
T2 sequence (P42574 176-277 limits assumed): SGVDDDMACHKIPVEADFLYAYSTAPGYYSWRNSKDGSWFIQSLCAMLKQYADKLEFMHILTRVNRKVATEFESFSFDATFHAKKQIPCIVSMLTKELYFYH
Description: The human active recombinant Caspase-3 (#707-C3) was purchased from R&D Systems (Minneapolis, USA). […] Stock solutions were stored at −80 °C. […] Caspase inhibitors were solubilized in DMSO at 10 mM and stored at −80 °C.
Initial velocity (V0) was determined from the linear portion of the progress curve. The composition of the activity buffer was: 20 mM HEPES, pH 7.4; 0.1% CHAPS, 5 mM DTT, 2 mM EDTA; 800 mM sodium succinate for Caspase-2 (0.2 nM) with 25 µM of Ac-VDVAD-7-amino-3-methylcoumarin (AMC) and 20 mM HEPES, pH 7.4; 0.1% CHAPS, 5 mM DTT, 2 mM EDTA; supplemented with 1 mg/mL of stabilizing agent bovine serum albumin (BSA) for Caspase-3 (0.1 nM) with 10 μM of Ac-DEVD-AMC. Compounds (0.001–100 µM) were tested in duplicate for each inhibitor concentration to detect their inhibitory potential. Enzymes and compounds were incubated for 30 min before initiating enzymatic reaction by adding substrate. Initial rates determined in control experiments (V0) were considered as 100% of the caspase activity; initial rates that were below 100% in the presence of tested compound (Vi) were considered as inhibition. The inhibitory activity of compounds was expressed as IC50 (Inhibitor concentration giving 50% inhibition). The values of IC50 were calculated by fitting the experimental data using Mars data Analysis 2.0 and KaleidaGraph software.1 %Inhibition=1001−Vi/V0=100I0/IC50+I0

[3] = molecular target: T3, Plasmin (Homo sapiens, UniProt P00747); experiment: Non-caspase enzyme assay, Plasmin; conditions: concentrations up to 10 µM
T3 construct: The human active Plasmin, Thrombin, and Trypsin; purchased Sigma-Aldrich
Description: (§1) Stock solutions were stored at −80 °C. […]
(§2) Non-caspase enzyme assays
(§3) The human pro- kallikrein-1 (pro-hK1) was activated in a buffer containing: Tris-HCl 50 mM, CaCl2 10 mM, NaCl 150 mM, Brij-35 0,05% pH 7,5. Human pro-kallikrein-6 and -8 (pro-hK6 and 8 were activated using Lysyl-endopeptidase (Wako- BioProducts®) at a 1/500 weight ratio, in a buffer containing 50 mM Tris and 0,05% Brij-35 (pH 8). Kinetics using non-caspase enzymes for selectivity studies were done according to the following conditions.
(§4) Enzymes Substrates Buffers
(§5) Cathepsine B (0.2 nM) z-RR-AMC 20 µM Acétate de sodium 0,1 M; EDTA 1mM ; […]
(§6) Cathepsine L (1.2 nM) RLR-AMC 25 µM Acétate de sodium 0,1 M; EDTA 1mM ; […]
(§7) Cathepsine D (0.1 nM) Mca-Gly-Ly s-Pro-Ile-Leu-Phe-Phe- Citrate de Sodium 0,1 M; EDTA 2 mM ; Arg-Leu-Lys(Dnp)-D-Arg-NH2 10 µM Brij-35 0,01%; pH 4 hK1 (4 nM) Boc-VPR-AMC 100µM Tris 50mM; Citrate 1M; Brij-35 0.05%; pH7 hK6 (2 nM ) Boc-QAR -AMC 100 µM Tris 50mM; Citrate 1M; Brij-35 0.05%; pH7 hK8 (1 nM) Boc-VPR-AMC 100µM Tris 50mM; Citrate 1M; Brij-35 0.05%; pH7
(§8) Thrombine (10 mU/mL) Boc-VPR-AMC 100µM Tris 50mM; Citrate 1M; Brij-35 0.05%; pH7 Plasmine (4 nM ) Boc-QAR -AMC 100µM Tris 50mM; Citrate 1M; Brij-35 0.05%; pH7 Trypsine (0.1 nM) Boc-QAR -AMC 100µM Tris 50mM; Citrate 1M; Brij-35 0.05%; pH7

[4] = molecular target: T4, Kallikrein-8 (Homo sapiens, UniProt O60259); experiment: Non-caspase enzyme assay, Kallikrein-8; conditions: concentrations up to 10 µM
T4 construct: purchased R&D Systems 2025-SE-010
Description: as §1, §2, §3, §4, §5, §6, §7, §8

T4 sequence (O60259 33-260): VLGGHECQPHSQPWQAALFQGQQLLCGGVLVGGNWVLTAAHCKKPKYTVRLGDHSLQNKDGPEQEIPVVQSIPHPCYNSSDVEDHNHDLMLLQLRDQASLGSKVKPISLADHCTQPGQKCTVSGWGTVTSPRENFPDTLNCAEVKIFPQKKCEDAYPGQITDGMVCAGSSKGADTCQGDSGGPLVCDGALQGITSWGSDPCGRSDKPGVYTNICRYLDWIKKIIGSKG
T3 sequence (P00747 581-810 limits assumed): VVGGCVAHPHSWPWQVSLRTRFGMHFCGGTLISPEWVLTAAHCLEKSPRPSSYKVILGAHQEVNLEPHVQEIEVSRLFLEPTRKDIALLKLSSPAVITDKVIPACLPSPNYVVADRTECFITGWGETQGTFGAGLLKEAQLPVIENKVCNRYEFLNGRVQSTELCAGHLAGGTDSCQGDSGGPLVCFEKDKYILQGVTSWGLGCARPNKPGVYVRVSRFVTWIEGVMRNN
T3 sequence (P00747 97-580 partner limits assumed): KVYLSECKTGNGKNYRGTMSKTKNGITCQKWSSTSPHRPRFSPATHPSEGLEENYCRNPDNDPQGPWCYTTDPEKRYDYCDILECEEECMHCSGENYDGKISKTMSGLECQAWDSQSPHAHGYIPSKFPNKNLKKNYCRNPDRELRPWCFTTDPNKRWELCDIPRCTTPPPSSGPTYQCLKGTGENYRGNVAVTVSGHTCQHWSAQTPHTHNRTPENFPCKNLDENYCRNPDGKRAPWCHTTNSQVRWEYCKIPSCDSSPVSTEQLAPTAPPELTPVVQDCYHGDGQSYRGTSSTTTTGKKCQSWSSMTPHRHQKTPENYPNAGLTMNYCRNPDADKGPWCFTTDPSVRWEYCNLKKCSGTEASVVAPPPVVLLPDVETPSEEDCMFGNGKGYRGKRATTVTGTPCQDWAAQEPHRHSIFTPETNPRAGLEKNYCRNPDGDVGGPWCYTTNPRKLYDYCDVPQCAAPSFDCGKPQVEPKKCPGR

Compound | IC50 [1] [nM] | IC50 [2] [nM] | effect on Plasmin [3] | effect on Kallikrein-8 [4]
Cc1ccc2c(c1)CCN(C(=O)[C@@H](NC(=O)[C@H](CC(=O)O)NC(=O)[C@@H](NC(=O)c1ccc3ccccc3n1)C(C)C)C(C)C)C2C(=O)NC(CC(=O)O)C(=O)COc1c(F)cccc1F (stereo partly drawn) [LJ2, Quinolin-2-carbonyl-VDV-(methyl-isoquinolyl)-D-CH2-O(2,6F2)Ph] (Quinaldoyl-VDV[ξTHIQ1CO(6-Me)]-X1) | 0.37 ± 0.01 | 140 ± 5 |  | 
CC(C)[C@H](NC(=O)c1ccc2ccccc2n1)C(=O)N[C@@H](CC(=O)O)C(=O)N[C@H](C(=O)N1CC[C@H](CC(C)(C)C)[C@@H]1C(=O)NC(CC(=O)O)C(=O)COc1c(F)cccc1F)C(C)C (stereo partly shown) [LJ3a] |  |  | very limited or no effect | very limited or no effect
